Measured values from PMC12512194, “The Allosteric Regulator Inositol Phosphate Dramatically Affects the Efficacy and Selectivity of Inhibitors for Different HDAC Complexes” (Journal of the American Chemical Society, 2025).

Key:
[1] = target: T1, HDAC1 (Homo sapiens, UniProt Q13547); assay: HDAC1 protein level / degradation by immunoblot in HCT116 cells; format: cell-based; details: even at 10 μM
T1 construct: endogenous in cells; host or cells: HCT116
Protocol: (§1) complex and inhibitor were then incubated at 20 °C, 100 RPM for 2 hours . After incubation, 10 μL of the Boc -(Ac)Lys -AMC substrate, dissolved in HDAC assay buffer, was added to each well. The plate was incubate d at 30 °C, 100 RPM for 1 hour, followed by addition of 50 μL of a developer buffer (50 mM Tris pH 7.5, 100 mM NaCl, 10 mg/mL trypsin) to quench the reaction. The reaction was allowed to develop for 10 minutes at 30 °C, 100 RPM. Fluorescence intensity was determined with the Victor […]
IC50 values were calculated using GraphPad
Prism 7 software by non-linear regression, log (inhibitor) vs. response – variable slope (four […]
(§2) 6. Culture of HCT116 cells
(§3) HCT116 cells were maintained on 100 mm or 60 mm culture dishes in Dulbecco's Modified Eagle Medium (Gibco) supplemented with 10% fetal bovine serum (Sigma) and 1X glutamine/penicillin/streptomycin (Gibco) . Once the cells reached ~90% confluency, they were washed with warm PBS (Sigma), trypsinised using TrypLETM Express solution (Gibco) and put into an incubator at 37°C for 5 minutes. Once dissociated, cell media was used to dilute the cells into required

[2] = target: T2, HDAC3 (Homo sapiens, UniProt O15379); assay: HDAC3 protein level / degradation by immunoblot in HCT116 cells; format: cell-based; details: even at 10 μM
T2 construct: endogenous in cells; host or cells: HCT116
T2 sequence (O15379 whole entry): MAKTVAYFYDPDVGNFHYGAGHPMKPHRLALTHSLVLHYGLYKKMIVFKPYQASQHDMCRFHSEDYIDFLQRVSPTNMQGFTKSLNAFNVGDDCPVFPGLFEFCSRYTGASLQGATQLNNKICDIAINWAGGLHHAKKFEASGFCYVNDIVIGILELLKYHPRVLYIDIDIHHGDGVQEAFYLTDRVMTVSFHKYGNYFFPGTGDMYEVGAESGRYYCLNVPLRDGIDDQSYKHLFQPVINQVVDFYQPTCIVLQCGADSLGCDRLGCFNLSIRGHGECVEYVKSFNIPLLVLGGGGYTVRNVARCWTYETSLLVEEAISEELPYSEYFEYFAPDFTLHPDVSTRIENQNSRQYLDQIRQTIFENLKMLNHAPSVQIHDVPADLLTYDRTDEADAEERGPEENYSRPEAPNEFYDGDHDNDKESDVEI
T2 sequence (Q9Y618 whole entry partner): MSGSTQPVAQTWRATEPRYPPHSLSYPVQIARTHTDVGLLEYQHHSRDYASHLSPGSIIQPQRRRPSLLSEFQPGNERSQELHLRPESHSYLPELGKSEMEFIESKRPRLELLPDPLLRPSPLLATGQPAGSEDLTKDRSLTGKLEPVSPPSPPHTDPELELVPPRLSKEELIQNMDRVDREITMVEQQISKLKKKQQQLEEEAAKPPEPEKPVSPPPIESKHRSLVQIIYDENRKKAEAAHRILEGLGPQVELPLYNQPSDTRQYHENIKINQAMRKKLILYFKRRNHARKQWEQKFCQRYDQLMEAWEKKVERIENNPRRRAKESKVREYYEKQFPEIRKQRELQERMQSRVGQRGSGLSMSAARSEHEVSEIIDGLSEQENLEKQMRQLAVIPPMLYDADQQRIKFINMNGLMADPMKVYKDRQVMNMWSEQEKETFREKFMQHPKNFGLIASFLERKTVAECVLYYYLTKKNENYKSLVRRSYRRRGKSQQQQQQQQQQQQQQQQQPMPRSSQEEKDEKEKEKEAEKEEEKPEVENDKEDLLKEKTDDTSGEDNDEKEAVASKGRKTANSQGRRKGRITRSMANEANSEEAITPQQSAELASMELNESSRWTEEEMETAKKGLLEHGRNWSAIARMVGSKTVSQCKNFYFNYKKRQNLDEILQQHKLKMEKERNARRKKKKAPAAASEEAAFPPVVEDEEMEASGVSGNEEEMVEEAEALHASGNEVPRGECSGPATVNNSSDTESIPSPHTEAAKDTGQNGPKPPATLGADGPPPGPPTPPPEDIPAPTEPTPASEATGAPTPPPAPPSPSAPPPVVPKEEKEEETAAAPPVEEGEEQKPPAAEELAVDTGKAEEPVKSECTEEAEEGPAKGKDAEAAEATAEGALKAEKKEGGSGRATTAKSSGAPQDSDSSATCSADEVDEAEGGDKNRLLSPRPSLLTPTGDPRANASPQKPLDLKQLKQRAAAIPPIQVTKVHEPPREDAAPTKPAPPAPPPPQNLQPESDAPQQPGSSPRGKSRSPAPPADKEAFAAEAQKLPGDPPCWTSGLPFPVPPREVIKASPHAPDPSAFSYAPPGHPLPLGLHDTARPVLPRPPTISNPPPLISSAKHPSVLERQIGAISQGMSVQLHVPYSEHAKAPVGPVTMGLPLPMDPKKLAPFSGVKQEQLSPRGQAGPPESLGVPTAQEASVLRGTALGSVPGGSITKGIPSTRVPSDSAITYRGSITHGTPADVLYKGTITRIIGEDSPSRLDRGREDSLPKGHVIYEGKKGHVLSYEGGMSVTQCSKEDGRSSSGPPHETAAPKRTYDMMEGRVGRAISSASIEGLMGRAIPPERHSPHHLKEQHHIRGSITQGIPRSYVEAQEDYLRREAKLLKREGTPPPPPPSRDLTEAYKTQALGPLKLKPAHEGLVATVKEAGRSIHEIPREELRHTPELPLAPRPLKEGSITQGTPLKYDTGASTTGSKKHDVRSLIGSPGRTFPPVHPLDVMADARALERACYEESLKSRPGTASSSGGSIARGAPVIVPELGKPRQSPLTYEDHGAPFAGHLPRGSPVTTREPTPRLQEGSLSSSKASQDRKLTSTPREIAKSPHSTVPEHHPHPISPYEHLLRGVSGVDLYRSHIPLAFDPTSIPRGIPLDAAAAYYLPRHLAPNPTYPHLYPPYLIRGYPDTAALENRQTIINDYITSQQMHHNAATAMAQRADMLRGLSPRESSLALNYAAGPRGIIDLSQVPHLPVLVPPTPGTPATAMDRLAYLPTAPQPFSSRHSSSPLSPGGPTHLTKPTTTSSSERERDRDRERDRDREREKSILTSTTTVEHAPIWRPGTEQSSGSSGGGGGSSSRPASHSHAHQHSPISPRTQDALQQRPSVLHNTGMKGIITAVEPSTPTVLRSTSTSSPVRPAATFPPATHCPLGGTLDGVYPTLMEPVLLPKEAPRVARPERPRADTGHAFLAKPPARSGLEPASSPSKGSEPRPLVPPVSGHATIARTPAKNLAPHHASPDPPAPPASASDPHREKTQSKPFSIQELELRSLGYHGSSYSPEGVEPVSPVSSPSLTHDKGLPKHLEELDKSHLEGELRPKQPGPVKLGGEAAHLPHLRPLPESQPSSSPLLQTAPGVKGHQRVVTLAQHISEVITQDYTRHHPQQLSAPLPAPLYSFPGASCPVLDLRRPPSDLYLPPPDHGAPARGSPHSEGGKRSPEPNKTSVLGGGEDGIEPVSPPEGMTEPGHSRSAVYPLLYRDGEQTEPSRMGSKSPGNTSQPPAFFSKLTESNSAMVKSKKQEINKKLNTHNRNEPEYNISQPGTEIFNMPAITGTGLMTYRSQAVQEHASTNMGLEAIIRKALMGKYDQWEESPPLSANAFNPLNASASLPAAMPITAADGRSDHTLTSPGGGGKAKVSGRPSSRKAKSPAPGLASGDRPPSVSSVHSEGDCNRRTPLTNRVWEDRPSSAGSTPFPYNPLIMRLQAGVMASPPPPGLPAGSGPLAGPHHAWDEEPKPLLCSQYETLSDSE
Protocol: as §1, with “Victor X5 plate reader (Perkin Elmer, λex = 355 nm, λem = 460 nm). IC50 values were calculated using GraphPad Prism 7 software by non-linear regression, log (inhibitor) vs. response – variable slope (four” for “Victor”
as §2
as §3, with “Once dissociated, cell media was used to dilute the cells into required” left out
mins, 4 °C) and the supernatant was collected. Protein concentrations were quantified via Bradford Assay using Protein Assay Dye Reagent Concentrate (BIO -RAD). […]

T1 sequence (Q13547 whole entry): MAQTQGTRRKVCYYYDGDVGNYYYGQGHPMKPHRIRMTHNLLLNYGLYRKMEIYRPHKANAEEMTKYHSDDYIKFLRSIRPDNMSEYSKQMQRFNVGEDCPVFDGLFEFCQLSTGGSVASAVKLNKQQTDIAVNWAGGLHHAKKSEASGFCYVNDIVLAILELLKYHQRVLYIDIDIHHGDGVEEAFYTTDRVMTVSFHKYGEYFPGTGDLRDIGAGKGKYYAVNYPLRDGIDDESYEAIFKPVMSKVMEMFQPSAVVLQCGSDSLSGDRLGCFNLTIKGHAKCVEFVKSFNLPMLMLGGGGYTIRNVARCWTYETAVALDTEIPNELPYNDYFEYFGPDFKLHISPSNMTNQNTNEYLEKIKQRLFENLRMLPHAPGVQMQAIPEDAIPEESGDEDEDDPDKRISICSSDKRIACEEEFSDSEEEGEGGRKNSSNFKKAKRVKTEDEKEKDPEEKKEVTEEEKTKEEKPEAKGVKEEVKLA

Compound: Cc1ncsc1-c1ccc(CNC(=O)[C@@H]2C[C@@H](O)CN2C(=O)[C@@H](NC(=O)CCCCCCCCCC(=O)N2CCN(c3cnc(C(=O)Nc4cc(-c5ccncc5)ccc4N)cn3)CC2)C(C)(C)C)cc1 [JPS062]
- degradation of HDAC1 [1]: no degradation
- degradation of HDAC3 [2]: no degradation
